Experimental data reported in paper PMC9605737, “Identification of 6ω-cyclohexyl-2-(phenylamino carbonylmethylthio)pyrimidin-4(3H)-ones targeting the ZIKV NS5 RNA dependent RNA polymerase” (Frontiers in Chemistry, 2022).
Where two headings read alike, the source gives them in different places.

Assays:
ZIKV = assay: Plaque assay, anti-ZIKV activity in Vero cells; format: cell-based, Zika virus; conditions: for EC50: read-out: EC50 (anti-ZIKV activity, plaque formation)
Protocol: Initially, the novel acetylarylamine-S-DACOs 4a-z were tested for their cytotoxicity and anti-ZIKV activity in Vero cells by plaque formation according to previously detailed procedure ([Xu et al., 2017]).
Vero cells were inoculated in a 12-well plate at 3 × 10^5 cells/ml and cultured overnight, the medium was discarded and cells were washed with PBS, then the ZIKV (MOI = 0.5) was added to infect at 37°C for 2 h. The cells were washed with PBS, and then a mixture of DMEM supplemented with 4% FBS and 2% low-melting agarose (Amresco, United States) was overlaid on the cells. Next, the cells were fixed with 4% paraformaldehyde for 15 min at 5d post-infection (hpi), washed twice with PBS and stained with 0.8% crystal violet for 10 min. Finally, an enzyme-linked fluorescence spot spectrometer (CTL, United States) was used for image acquisition.

[1] = MTT cytotoxicity assay in Vero cells; format: cell-based, African green monkey; conditions: African green monkey, triplicate, >200 = highest soluble concentration not reaching 50% cytotoxicity
Protocol: (§1) MTT assay was used to detect the toxicity of the compound. Cells were seeded in 96-well plates and cultured overnight. Compounds with different concentrations were added and incubated for 96 h. Then, 20 μl of 5 mg/ml MTT (Sigma-Aldrich, United States) solution was added to each well and kept at 37°C for 4 h. Subsequently, 100 μl of 12% SDS-50% DMF (Sigma-Aldrich, United States) solution was added and incubated overnight at 37°C. After the crystalline formamidine was completely dissolved, the optical density (OD) value was measured using a microplate reader (BioTek, United States) with a wavelength of 570 nm and a reference wavelength of 630 nm.
(§2) The 50% effective concentration (EC50) and 50% cytotoxic concentration (CC50) of the compound were calculated according to the Reed and Muench method, inhibition rate of ZIKV RNA yield- [(1-drug treatment/positive control) × 100]. The data and graphs were processed using GraphPad Prism8 software, expressed as mean ± standard deviation (Mean ± SD), comparison between groups using ANOVA, p < 0.05 was considered statistically significant.

Vero cells = assay: MTT cytotoxicity assay in Vero cells; format: cell-based, African green monkey; conditions: 96 h, triplicate, >200 = highest soluble concentration not reaching 50% cytotoxicity
Protocol: as §1, §2

HCV = tested on: HCV; parameters: method as in Wu et al. (2017); conditions: Figure 3; ref Wu et al. (2017); read-out: EC50 (anti-HCV); cited from earlier work
[2] = Figure 3; ref Wu et al. (2017); cited from earlier work
ZIKV RdRp = target: T1, ZIKV RdRp (Zika virus, UniProt A0A024B7W1); parameters: method as in Sáez-Álvarez et al., 2019; conditions: positive control drug; ref Sáez-Álvarez et al., 2019; cited from earlier work
T1 construct: we expressed and purified ZIKV RdRp domain; made in house; host or cells: Escherichia coli BL21 (DE3)
T1 sequence (A0A024B7W1 2793-3423): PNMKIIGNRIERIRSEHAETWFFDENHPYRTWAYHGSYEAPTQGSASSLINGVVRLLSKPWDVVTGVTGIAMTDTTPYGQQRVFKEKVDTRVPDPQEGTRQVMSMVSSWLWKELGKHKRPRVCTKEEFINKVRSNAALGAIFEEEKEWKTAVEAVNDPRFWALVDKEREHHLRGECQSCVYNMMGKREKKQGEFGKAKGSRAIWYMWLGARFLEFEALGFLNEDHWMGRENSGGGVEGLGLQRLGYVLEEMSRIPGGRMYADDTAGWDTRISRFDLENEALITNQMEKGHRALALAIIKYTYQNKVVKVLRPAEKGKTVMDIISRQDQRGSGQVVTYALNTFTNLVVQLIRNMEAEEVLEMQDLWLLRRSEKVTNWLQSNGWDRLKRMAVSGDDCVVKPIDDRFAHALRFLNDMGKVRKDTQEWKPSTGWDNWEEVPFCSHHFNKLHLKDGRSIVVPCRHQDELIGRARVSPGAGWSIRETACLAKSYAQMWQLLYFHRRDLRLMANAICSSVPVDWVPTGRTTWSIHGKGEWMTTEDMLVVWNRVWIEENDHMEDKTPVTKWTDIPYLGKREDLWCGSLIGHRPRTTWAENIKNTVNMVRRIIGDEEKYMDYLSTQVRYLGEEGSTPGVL

[3] = Zika virus, plaque assay, independently in triplicate
[4] = plaque assay, independently in triplicate

| EC50 (ZIKV; [3]) [µM] | melting point [°C] | Compound | CC50 at 96 h [1] [µM] | further results |
| --- | --- | --- | --- | --- |
| > 50 |  | CCc1c(C2CCCCC2)nc(SCC(=O)Nc2ccccc2OC)[nH]c1=O [Compound 4a, 2-[(4-cyclohexyl-5-ethyl-6-oxo-1,6-dihydropyrimidin-2-yl)thio]-N-(2-methoxyphenyl)acetamide] | > 200 |  |
| > 50 | 207 to 209 | CCc1c(C2CCCCC2)nc(SCC(=O)Nc2cccc(OC)c2)[nH]c1=O [Compound 4c, 2-[(4-cyclohexyl-5-ethyl-6-oxo-1,6-dihydropyrimidin-2-yl)thio]-N-(3-methoxyphenyl)acetamide] | 109 ± 3.19 |  |
| > 50 |  | CCc1c(C2CCCCC2)nc(SCC(=O)Nc2ccc(OC)cc2)[nH]c1=O [Compound 4e, 2-[(4-cyclohexyl-5-ethyl-6-oxo-1,6-dihydropyrimidin-2-yl)thio]-N-(4-methoxyphenyl)acetamide] | > 200 |  |
| > 50 | 273 to 274 | CCc1c(C2CCCCC2)nc(SCC(=O)Nc2ccc(F)cc2)[nH]c1=O [Compound 4k, 2-[(4-cyclohexyl-5-ethyl-6-oxo-1,6-dihydropyrimidin-2-yl)thio]-N-(4-fluorophenyl)acetamide] | > 200 |  |
| 16.3 ± 1.31 | 206 to 208 | CCc1c(C2CCCCC2)nc(SCC(=O)Nc2ccccc2F)[nH]c1=O [Compound 4g, 2-[(4-cyclohexyl-5-ethyl-6-oxo-1,6-dihydropyrimidin-2-yl)thio]-N-(2-fluorophenyl)acetamide] | > 200 | SI (selectivity index, CC50/EC50 ratio) (ZIKV): >12.27 |
|  | 182 to 183 | CCc1c(CC2CCCCC2)nc(SCC(=O)Nc2cc(F)ccc2OC)[nH]c1=O [Compound 4z, 2-{[4-(cyclohexylmethyl)-5-ethyl-6-oxo-1,6-dihydropyrimidin-2-yl]thio}-N-(5-fluoro-2-methoxyphenyl)acetamide] |  | EC50 (anti-ZIKV activity, plaque formation) (ZIKV; [4]): did not show activity; EC50 (ZIKV; [4]): > 50 µM; CC50 (Vero cells): > 200 µM |
|  |  | CCc1c(CC2CCCCC2)nc(SCC(=O)C(O)c2ccc(F)cc2)[nH]c1=O (stereo not shown) [compound B, reference compound] |  | EC50 (HCV): 2.02 µM; CC50 [2]: 196 µM |
| > 50 | 190 to 192 | CCc1c(C2CCCCC2)nc(SCC(=O)Nc2cc(F)ccc2F)[nH]c1=O [Compound 4u, 2-[(4-cyclohexyl-5-ethyl-6-oxo-1,6-dihydropyrimidin-2-yl)thio]-N-(2,5-difluorophenyl)acetamide] | > 200 |  |
| > 50 | 227 to 229 | CCc1c(C2CCCCC2)nc(SCC(=O)Nc2ccc(F)cc2F)[nH]c1=O [Compound 4s, 2-[(4-cyclohexyl-5-ethyl-6-oxo-1,6-dihydropyrimidin-2-yl)thio]-N-(2,4-difluorophenyl)acetamide] | > 200 |  |
|  |  | Heparin |  | inhibition of ZIKV RdRp activity (ZIKV RdRp): significantly inhibited |
| 48.9 ± 3.42 |  | NC(=O)c1ncn([C@@H]2O[C@H](CO)[C@@H](O)[C@H]2O)n1 [Ribavirin, reference compound] | > 200 | SI (selectivity index, CC50/EC50 ratio) (ZIKV): >4.09 |
| 19.4 ± 0.38 | 184 to 187 | CCc1c(C2CCCCC2)nc(SCC(=O)Nc2cccc(F)c2)[nH]c1=O [Compound 4i, 2-[(4-cyclohexyl-5-ethyl-6-oxo-1,6-dihydropyrimidin-2-yl)thio]-N-(3-fluorophenyl)acetamide] | > 200 | SI (selectivity index, CC50/EC50 ratio) (ZIKV): >10.33 |
